{"source": "patent US20100137313A1", "about": "(ASTRAZENECA AB, priority 2008, published 2010)", "data": [{"target": "S. pneumoniae Topoisomerase IV ATPase (ParE) (Streptococcus pneumoniae serotype 4, UniProt Q59961)", "sequence (Q59961 whole entry)": "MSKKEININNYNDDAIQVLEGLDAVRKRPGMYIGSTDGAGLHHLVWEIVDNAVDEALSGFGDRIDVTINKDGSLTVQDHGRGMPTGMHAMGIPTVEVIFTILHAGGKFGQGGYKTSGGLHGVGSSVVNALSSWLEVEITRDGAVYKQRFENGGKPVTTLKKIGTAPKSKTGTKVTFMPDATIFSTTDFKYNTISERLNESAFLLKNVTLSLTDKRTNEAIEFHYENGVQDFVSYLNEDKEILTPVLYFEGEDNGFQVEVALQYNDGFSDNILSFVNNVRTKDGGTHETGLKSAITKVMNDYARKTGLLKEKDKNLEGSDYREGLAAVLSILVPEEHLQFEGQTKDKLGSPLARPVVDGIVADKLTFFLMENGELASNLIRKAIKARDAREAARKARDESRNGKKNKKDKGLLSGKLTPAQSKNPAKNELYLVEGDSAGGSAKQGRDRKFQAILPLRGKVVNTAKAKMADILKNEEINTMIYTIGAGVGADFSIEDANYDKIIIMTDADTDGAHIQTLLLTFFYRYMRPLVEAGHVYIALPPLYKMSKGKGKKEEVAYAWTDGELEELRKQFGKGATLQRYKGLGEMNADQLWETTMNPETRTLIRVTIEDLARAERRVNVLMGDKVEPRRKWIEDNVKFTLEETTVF", "test": "S. pneumoniae Topoisomerase IV ATPase inhibition", "format": "biochemical", "conditions": "values marked * are an average of two or more data points, read-out: % Inh (13 μM) of S. pneumoniae Topoisomerase IV ATPase", "procedure,_shortened": "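Phosphate release by ParE ATPase from S. pneumoniae read colorimetrically (malachite green, 650 nm), enzyme 1.25 nM, ATP 160 μM, salmon sperm DNA present, buffer 20 mM Tris pH 8.0 with 8 mM MgCl2. IC50 over 10 compound concentrations, EDTA (20 μM) and DMSO controls defining inhibition range.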", "units": {"inhibition at 13 µM": "%"}, "values": [{"smiles": "COc1cc(C#N)cc(Nc2ncc(-c3cncc(C(=O)O)c3)c(-n3nc(C(F)(F)F)cc3C)n2)c1", "note": "[Example 733, 5-{2-[(3-cyano-5-methoxyphenyl)amino]-4-[5-methyl-3-(trifluoromethyl)-1H-pyrazol-1-yl]pyrimidin-5-yl}pyridine-3-carboxylic acid]", "inhibition at 13 µM": 100}, {"smiles": "COc1cc(Nc2ncc(-c3cnc(OCCCS(C)(=O)=O)c(C(=O)NS(C)(=O)=O)c3)c(-n3nc(C(F)(F)F)cc3C)n2)cc(OC)c1", "note": "[Example 970, 5-(2-(3,5-dimethoxyphenylamino)-4-(5-methyl-3-(trifluoromethyl)-1H-pyrazol-1-yl)pyrimidin-5-yl)-N-(methylsulfonyl)-2-(3-(methylsulfonyl)propoxy)nicotinamide]", "inhibition at 13 µM": 100}, {"smiles": "O=C(O)c1cncc(-c2cnc(Nc3ccc(F)c(Cl)c3)nc2-n2cnc(Cl)c2Cl)c1", "note": "[Example 327, 5-{2-[(3-chloro-4-fluorophenyl)amino]-4-(4,5-dichloro-1H-imidazol-1-yl)pyrimidin-5-yl}pyridine-3-carboxylic acid]", "inhibition at 13 µM": 99}, {"smiles": "O=C(O)c1cncc(-c2cnc(Nc3ccc(F)c(Cl)c3)nc2-n2ccc(-c3ccsc3)n2)c1", "note": "[Example 533, 5-{2-[(3-chloro-4-fluorophenyl)amino]-4-[3-(thiophen-3-yl)-1H-pyrazol-1-yl]pyrimidin-5-yl}pyridine-3-carboxylic acid]", "inhibition at 13 µM": 100}, {"smiles": "O=C(O)c1cncc(-c2cnc(Nc3ccc(F)c(Cl)c3)nc2N2CCC(O)CC2)c1", "note": "[Example 244, 5-[2-[(3-chloro-4-fluorophenyl)amino]-4-(4-hydroxypiperidin-1-yl)pyrimidin-5-yl]pyridine-3-carboxylic acid]", "inhibition at 13 µM": 76.3}, {"smiles": "COc1cc(Nc2ncc(-c3cncc(C(=O)O)c3)c(-n3nc(C(F)(F)F)cc3C)n2)cc(S(C)(=O)=O)c1", "note": "[Example 673, 5-(2-{[3-methoxy-5-(methylsulfonyl)phenyl]amino}-4-[5-methyl-3-(trifluoromethyl)-1H-pyrazol-1-yl]pyrimidin-5-yl)pyridine-3-carboxylic acid]", "inhibition at 13 µM": 100}, {"smiles": "O=C(O)c1cncc(-c2cnc(Nc3ccc(F)c(Cl)c3)nc2-n2cnc(C(F)(F)F)c2)c1", "note": "[Example 328, 5-{2-[(3-chloro-4-fluorophenyl)amino]-4-[4-(trifluoromethyl)-1H-imidazol-1-yl]pyrimidin-5-yl}pyridine-3-carboxylic acid]", "inhibition at 13 µM": 70.8}, {"smiles": "O=C(O)c1cncc(-c2cnc(Nc3ccc(F)c(Cl)c3)nc2N2CCCC(CO)C2)c1", "note": "(stereo not drawn) [Example 245, 5-[2-[(3-chloro-4-fluorophenyl)amino]-4-[3-(hydroxymethyl)piper-idin-1-yl]pyrimidin-5-yl]pyridine-3-carboxylic acid]", "inhibition at 13 µM": 83.1}, {"smiles": "CN(C)CCCNc1nc(Nc2ccc(F)c(Cl)c2)ncc1-c1cncnc1", "note": "[Example 32, N^2-(3-chloro-4-fluorophenyl)-N^4-[3-(dimethylamino)propyl]-5,5′-bipyrimidine-2,4-diamine]", "inhibition at 13 µM": 91.1}, {"smiles": "CCOC(=O)c1cncc(-c2cnc(Nc3ccc(F)c(Cl)c3)nc2N2CCCC2)c1", "note": "[Example 147, ethyl 5-(2-(3-chloro-4-fluorophenylamino)-4-(pyrrolidin-1-yl)pyrimidin-5-yl)nicotinate]", "inhibition at 13 µM": 65.4}, {"smiles": "CC(=O)N1CCN(c2nc(Nc3ccc(F)c(Cl)c3)ncc2-c2ccc(C(=O)O)s2)CC1", "note": "[Example 982, 5-(4-(4-Acetylpiperazin-1-yl)-2-(3-chloro-4-fluorophenylamino)pyrimidin-5-yl)thiophene-2-carboxylic acid]", "inhibition at 13 µM": 100}, {"smiles": "CONC(=O)c1cncc(-c2cnc(Nc3ccc(F)c(Cl)c3)nc2-n2ccc(NC(C)=O)n2)c1", "note": "[Example 549, 5-{4-[3-(acetylamino)-1H-pyrazol-1-yl]-2-[(3-chloro-4-fluorophenyl)amino]-pyrimidin-5-yl}-N-methoxypyridine-3-carboxamide]", "inhibition at 13 µM": 94}, {"smiles": "CCn1cc(-c2cnc(Nc3ccc(F)c(Cl)c3)nc2-n2ccc(C(F)(F)F)n2)cc(C(=O)O)c1=O", "note": "[Example 1085, 5-(2-(3-Chloro-4-fluorophenylamino)-4-(3-(trifluoromethyl)-1H-pyrazol-1-yl)pyrimidin-5-yl)-1-ethyl-2-oxo-1,2-dihydropyridine-3-carboxylic acid]", "inhibition at 13 µM": 100}, {"smiles": "OC1CCN(c2nc(Nc3ccc(F)c(Cl)c3)ncc2-c2cncnc2)C1", "note": "(stereo not drawn) [Example 66, 1-[2-[(3-chloro-4-fluorophenyl)amino]-5-pyrimidin-5-ylpyrimidin-4-yl]pyrrolidin-3-ol]", "inhibition at 13 µM": 62.1}, {"smiles": "CCOC(=O)/C=C/c1cccc(-c2cnc(Nc3ccc(F)c(Cl)c3)nc2N2CCOC(CO)C2)c1", "note": "(stereo not drawn) [Example 977, (E)-ethyl 3-(3-(2-(3-chloro-4-fluorophenylamino)-4-(2-(hydroxymethyl)morpholino)pyrimidin-5-yl)phenyl)acrylate]", "inhibition at 13 µM": 74}, {"smiles": "O=C(O)/C=C/c1cccc(-c2cnc(Nc3ccc(F)c(Cl)c3)nc2-n2nc(C(F)F)cc2C(F)F)c1", "note": "[Example 564, (2E)-3-(3-{4-[3,5-bis(difluoromethyl)-1H-pyrazol-1-yl]-2-[(3-chloro-4-fluorophenyl)amino]pyrimidin-5-yl}phenyl)prop-2-enoic acid]", "inhibition at 13 µM": 92}, {"smiles": "COCCn1cc(-c2cnc(Nc3cc(OC)cc(OC)c3)nc2-n2ccc(C(F)(F)F)n2)cc(C(=O)O)c1=O", "note": "[Example 1159]", "inhibition at 13 µM": 100}, {"smiles": "Cn1ccnc1COc1ncc(-c2cnc(Nc3ccc(F)c(Cl)c3)nc2-n2ccc(C(F)(F)F)n2)cc1C(=O)O", "note": "[Example 961, 5-(2-(3-chloro-4-fluorophenylamino)-4-(3-(trifluoromethyl)-1H-pyrazol-1-yl)pyrimidin-5-yl)-2-((1-methyl-1H-imidazol-2-yl)methoxy)nicotinic acid]", "inhibition at 13 µM": 100}, {"smiles": "Cc1ccc(S(=O)(=O)n2ccc3cc(Nc4ncc(-c5cncc(C(=O)O)c5)c(-n5nc(C(F)(F)F)cc5C)n4)ccc32)cc1", "note": "[Example 667, 5-{2-({1-[(4-methylphenyl)sulfonyl]-1H-indol-5-yl}amino)-4-[5-methyl-3-(trifluoromethyl)-1H-pyrazol-1-yl]pyrimidin-5-yl}pyridine-3-carboxylic acid]", "inhibition at 13 µM": 56}, {"smiles": "CN(C)CCCNc1nc(Nc2ccc(F)c(Cl)c2)ncc1-c1ccc2sc(C(=O)O)cc2c1", "note": "[Example 217, 5-(2-(3-chloro-4-fluorophenylamino)-4-(3-(dimethylamino)propylamino)pyrimidin-5-yl)benzo[b] thiophene-2-carboxylic acid]", "inhibition at 13 µM": 82.4}, {"smiles": "O=C(O)c1cncc(-c2cnc(Nc3ccc(F)c(Cl)c3)nc2NCc2ccco2)c1", "note": "[Example 237, 5-[2-[(3-chloro-4-fluorophenyl)amino]-4-(furan-2-ylmethylamino)pyrimidin-5-yl]pyridine-3-carboxylic acid]", "inhibition at 13 µM": 85.4}, {"smiles": "O=C(O)/C=C/c1cccc(-c2cnc(Nc3ccc4c(c3)CCC4)nc2-n2ccc(C(F)(F)F)n2)c1", "note": "[Example 655, (2E)-3-(3-{2-(2,3-dihydro-1H-inden-5-ylamino)-4-[3-(trifluoromethyl)-1H-pyrazol-1-yl]pyrimidin-5-yl}phenyl)prop-2-enoic acid]", "inhibition at 13 µM": 89}, {"smiles": "CS(=O)(=O)N1CCN(c2nc(Nc3ccc(F)c(Cl)c3)ncc2-c2cccc(/C=C/C(=O)O)c2)CC1", "note": "[Example 302, (E)-3-(3-(2-(3-chloro-4-fluorophenylamino)-4-(4-(methylsulfonyl)piperazin-1-yl)pyrimidin-5-yl)phenyl)acrylic acid]", "inhibition at 13 µM": 83}, {"smiles": "CCOC(=O)c1cncc(-c2cnc(Nc3ccc(F)c(Cl)c3)nc2NCCc2ccccn2)c1", "note": "[Example 101, 5-[2-(3-Chloro-4-fluoro-phenylamino)-4-(2-pyridin-2-yl-ethylamino)-pyrimidin-5-yl]-nicotinic acid ethyl ester]", "inhibition at 13 µM": 8.69}, {"smiles": "COc1cc(Nc2ncc(-c3cnc(OC)c(C(=O)NCCS(C)(=O)=O)c3)c(-n3nc(C(F)(F)F)cc3C)n2)cc(OC)c1", "note": "[Example 812, 5-{2-[(3,5-dimethoxyphenyl)amino]-4-[5-methyl-3-(trifluoromethyl)-1H-pyrazol-1-yl]pyrimidin-5-yl}-2-methoxy-N-[2-(methylsulfonyl)ethyl]pyridine-3-carboxamide]", "inhibition at 13 µM": 100}, {"smiles": "COCCCNc1nc(Nc2ccc(F)c(Cl)c2)ncc1-c1ccc2c(c1)c(=O)c(C(=O)O)cn2CCOC", "note": "[Example 304, 6-(2-(3-chloro-4-fluorophenylamino)-4-(3-methoxypropylamino)-pyrimidin-5-yl)-1-(2-methoxyethyl)-4-oxo-1,4-dihydroquinoline-3-carboxylic acid]", "inhibition at 13 µM": 55.8}, {"smiles": "Fc1ccc(Nc2ncc(-c3cncnc3)c(NCCc3cccnc3)n2)cc1Cl", "note": "[Example 45, N^2-(3-chloro-4-fluorophenyl)-N^4-(2-pyridin-3-ylethyl)-5-pyrimidin-5-ylpyrimidine-2,4-diamine]", "inhibition at 13 µM": 81.9}, {"smiles": "COc1ncc(-c2cnc(Nc3cc(C)cc(F)c3)nc2-n2ccc(C(F)(F)F)n2)cc1C(=O)O", "note": "[Example 754, 5-{2-[(3-fluoro-5-methylphenyl)-amino]-4-[3-(trifluoromethyl)-1H-pyrazol-1-yl]pyrimidin-5-yl}-2-methoxypyridine-3-carboxylic acid]", "inhibition at 13 µM": 100}, {"smiles": "COc1cc(Nc2ncc(-c3c[nH]c(=O)c(C(=O)O)c3)c(-n3ccc(C(F)(F)F)n3)n2)cc(OC)c1", "note": "[Example 1096, 5-(2-(3,5-Dimethoxyphenylamino)-4-(3-(trifluoromethyl)-1H-pyrazol-1-yl)pyrimidin-5-yl)-2-oxo-1,2-dihydropyridine-3-carboxylic acid]", "inhibition at 13 µM": 100}, {"smiles": "COc1cc(Nc2ncc(-c3cncnc3)c(NCCc3ccncc3)n2)cc(OC)c1", "note": "[Example 354, N^2-(3,5-dimethoxyphenyl)-N^4-(2-(pyridin-4-yl)ethyl)-5,5′-bipyrimidine-2,4-diamine]", "inhibition at 13 µM": 80.5}]}]}
